Reference: PubChem BioAssay (NCI)
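48-hour exposure; five concentrations; linearly interpolated endpoints. GI50: concentration for 50% inhibition of growth. TGI denotes the concentration required for complete inhibition of growth.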

Legend:
Test in all cases: NCI anticancer screen, dose series, 48 h
PC-3 prostate = system: PC-3 prostate
MDA-MB-435 = system: MDA-MB-435
DU-145 prostate = system: DU-145 prostate
SNB-78 CNS = system: SNB-78 CNS
DMS 273 small cell lung = system: DMS 273 small cell lung
DMS 114 small cell lung = system: DMS 114 small cell lung
HOP-18 NSCLC = system: HOP-18 NSCLC
KM20L2 colon = system: KM20L2 colon
MCF7 breast = system: MCF7 breast
SR leukemia = system: SR leukemia
HS 578T breast = system: HS 578T breast
MDA-MB-231 breast = system: MDA-MB-231 breast
MDA-N = system: MDA-N

Structure (SMILES) | GI50 (PC-3 prostate) [µM] | TGI (PC-3 prostate) [µM] | GI50 (MDA-MB-435) [µM] | TGI (MDA-MB-435) [µM] | GI50 (DU-145 prostate) [µM] | TGI (DU-145 prostate) [µM] | TGI (SNB-78 CNS) [µM] | TGI (DMS 273 small cell lung) [µM] | TGI (DMS 114 small cell lung) [µM] | TGI (HOP-18 NSCLC) [µM] | TGI (KM20L2 colon) [µM] | TGI (MCF7 breast) [µM] | TGI (SR leukemia) [µM] | TGI (HS 578T breast) [µM] | TGI (MDA-MB-231 breast) [µM] | TGI (MDA-N) [µM] | GI50 (SR leukemia) [µM] | GI50 (HS 578T breast) [µM] | GI50 (MDA-MB-231 breast) [µM] | GI50 (MCF7 breast) [µM]
COC1=CC(c2ccc[nH]2)=N/C1=C\c1[nH]c(C)c(CC(=O)NCc2ccccc2)c1C | 1.1 | 2.6 | 1.68 | 3.23 | 1.39 | 2.82 | – | – | – | – | – | – | – | – | – | – | – | – | – | –
CCOC(=O)NC(=O)c1cn(CCN(CCO)C(=O)NCCCCCCNC(=O)N(CCO)CCn2cc(C(=O)NC(=O)OCC)c(=O)[nH]c2=O)c(=O)[nH]c1=O | – | – | – | – | – | – | > 100 | > 100 | > 100 | > 100 | > 100 | > 100 | – | – | – | – | – | – | – | –
N/C(=C\c1ccc(/C=C(\NC(=O)c2ccccc2)c2nc3c([nH]2)C(=O)c2ccccc2C3=O)cc1)c1nc2c([nH]1)C(=O)c1ccccc1C2=O | – | – | – | – | – | – | 63.1 | 42.1 | 22.9 | 28.4 | 36.2 | – | – | – | – | – | – | – | – | –
COc1nc2ccc(Cl)c(C(O)c3ccccc3)c2nc1OC (stereo unspecified) | – | > 100 | – | 42.8 | – | > 100 | – | – | – | – | – | 87.6 | 27.3 | 38.9 | 39.9 | 54.8 | – | – | – | –
COC(Cc1cc(C(O)(c2ccc(C(C)(C)C)cc2)c2cc(CC(OC)(c3cc(C(OC)(c4ccc(C(C)(C)C)cc4)c4ccc(C(C)(C)C)cc4)c(C)cc3C)c3cc(C(OC)(c4ccc(C(C)(C)C)cc4)c4ccc(C(C)(C)C)cc4)c(C)cc3C)c(C)cc2C)c(C)cc1C)(c1cc(C(OC)(c2ccc(C(C)(C)C)cc2)c2ccc(C(C)(C)C)cc2)c(C)cc1C)c1cc(C(OC)(c2ccc(C(C)(C)C)cc2)c2ccc(C(C)(C)C)cc2)c(C)cc1C | – | > 75 | – | > 75 | – | > 75 | – | – | – | – | – | > 75 | > 75 | > 75 | > 75 | > 75 | – | – | – | –
COc1cc(-c2n/c(=C\c3c(O)[nH]c4ccccc34)cc3c2=Nc2ccccc2-3)ccc1F | 10.2 | 48.8 | 5.8 | 64.4 | 7.3 | 25.5 | – | – | – | – | – | > 100 | 20.2 | > 100 | 16.8 | – | 2.05 | 19.7 | 3.91 | 2.51
CCCC[n+]1ccn(-c2nc3ccccc3n2C)c1 | – | – | – | – | – | – | > 100 | > 100 | > 100 | > 100 | > 100 | – | > 100 | – | – | – | – | – | – | –
CN(CCO)CCC1COc2ccccc2O1 (stereo unspecified) | – | > 10 | – | > 10 | – | > 10 | – | – | – | – | – | > 10 | > 10 | > 10 | > 10 | > 10 | – | – | – | –
